The test system of one experiment is S. aureus. The experiment can be described thus: MIC against S. aureus strains and clinical isolates (broth microdilution). Format: cell-based, Staphylococcus aureus. The protocol:
were tested against a collection of clinical isolates of S. aureus including strains that were multi-resistant to mupirocin and to other agents such as gentamicin and oxacillin.
The acetate and mupirocin salts of the MRS inhibitor compound 5 were tested against a collection of both low and high-level mupirocin resistant clinical isolates of S. aureus (Table 6).
The bacterial strains were tested for susceptibility to mupirocin and MRSi compound 2 using the broth microdilution method in accordance with NCCLS guideline to determine their MICs.
Briefly, the MIC and checkerboard titration assays were performed with strains in microtiter trays with cation-supplemented Mueller-Hinton broth (Difco). Inocula were prepared by suspending growth from blood agar plates in sterile saline to a density equivalent to that of a 0.5 McFarland standard and were diluted […] to produce a final inoculum of 5×10^5 CFU/ml. The trays were incubated aerobically overnight. Standard quality control strains were included with each run. Fractional inhibitory concentrations (FICs) were calculated as the MIC of drug A or B in combination/MIC of drug A or B alone, and the FIC index was obtained by adding the two FICs. FIC indices were interpreted as synergistic if the values were ≦0.5, additive or indifferent if the values were >0.5 to 4, and antagonistic if the values were >4.0.
(In general: In broth dilution the organism is exposed to a series of concentrations in liquid medium.)

The subject of a further experiment is E. faecalis. The experiment can be described thus: MIC against E. faecalis. The class given is cell-based. The protocol: (§1) The MRS inhibitor 4 alone and in combination with mupirocin (mupirocin salt and 1:1 combination) were tested against a collection of Gram-positive pathogens.
(§2) MRSi compound 5 alone and in combination with mupirocin was tested recent clinical isolates of E. faecalis (n=28) and E. faecium (n=23). Both the acetate salt and mupirocinate salts of MRSi compound 5 maintained potent activity against vancomycin-susceptible and—resistant enterococci (Tables 8, 9, and 10).

The next experiment has as its system S. pyogenes. The experiment can be described thus: MIC against S. pyogenes. Format: cell-based, Streptococcus pyogenes. The protocol:
as §1
S. pyogenes is also a significant skin pathogen and 48 recent clinical isolates were tested for their susceptibility to MRSi compound 5 alone (acetate) and in combination (1:1) with mupirocin (mupirocinate).

A further experiment deals with S. epidermidis. As to the kind of experiment: MIC against S. epidermidis. Format: cell-based. The protocol: as §1
(§3) The MRS inhibitor 8 was also prepared as a fusidate and mupirocinate salt and tested for antibacterial activity against Gram-positive bacteria (Table 3). […] MRSi compound 8 alone and the fusidate and mupirocin salts were active against mupirocin-resistant S. aureus and S. epidermidis and organisms such as E. faecalis that are not susceptible to mupirocin.
(§4) The MRS inhibitor 5 acetate and mupirocin salts were tested against a collection of Gram-positive bacteria.

The test system of another experiment is S. hemolyticus. The experiment can be described thus: MIC against S. hemolyticus. Format: cell-based. The protocol: as §1, §3, §4
In another experiment the test system is E. faecium. The experiment can be described thus: MIC against E. faecium. The class given is cell-based. As to conditions: Enterococcus faecium, ATCC33667. The protocol: as §2
For experiment [1], the system named is S. aureus ATCC 29213 and 31-1334. As to the kind of experiment: Selection of spontaneous resistant mutants (mutation frequency). Format: cell-based, Staphylococcus aureus. The protocol: Approximately, 10^9 bacteria were plated onto Mueller-Hinton agar supplemented with 10% horse blood and containing various concentrations of the test compounds alone and in combination. After 24 and 48 hours of incubation at 35° C., the bacterial colonies were counted and the frequencies of mutation were determined relative to the total viable count of organisms that were plated. Resistant clones were re-plated once on plates containing the same concentration of agent that was used for the selection.

The text below walks through data of patent publication US20040224981A1, “Antibacterial methods and compositions” (priority 2003, published 2004).

Counter-ions that a name gives are not always drawn. Like-named read-outs stand apart in the source and are kept apart here.

Take `Cc1c(CNCCCNc2cc(=O)c3ccccc3[nH]2)sc(Br)c1Br` [MRSI Cmpd 4 acetate, N-(4,5-Dibromo-3-methylthiophen-2-ylmethyl)-N′-(1H-quinolin-4-one)propane-1,3-diamine]: the MIC with S. aureus (Staphylococcus aureus, ATCC29213, Table 2, S. aureus ATCC 29213, read-out: MIC) is 0.25 µg/mL; with S. aureus (Staphylococcus aureus, ATCC43300, Table 2, S. aureus ATCC 43300 (ORSA), read-out: MIC), 0.25 µg/mL; with S. aureus (Staphylococcus aureus, NRS107, Table 2, S. aureus NRS107 (mupA), read-out: MIC), 0.03 µg/mL; in the experiment with S. aureus (Staphylococcus aureus, Table 2, S. aureus Oxford, read-out: MIC) it was 0.03 µg/mL; in the experiment with E. faecalis (Enterococcus faecalis, ATCC29212, Table 2, E. faecalis ATCC 29212, read-out: MIC), not above 0.008 µg/mL; in the experiment on E. faecalis (Enterococcus faecalis, Table 2, E. faecalis 1, read-out: MIC), 0.015 µg/mL. The MIC in the experiment on E. faecalis (Enterococcus faecalis, Table 2, E. faecalis 7, read-out: MIC) is not above 0.008 µg/mL; in the experiment on S. pyogenes (Streptococcus pyogenes, ATCC19615, Table 2, S. pyogenes ATCC 19615, read-out: MIC), 0.25 µg/mL; in the experiment on S. pyogenes (Streptococcus pyogenes, Table 2, S. pyogenes MB143 (macrolide rest.), read-out: MIC), 0.12 µg/mL; in the experiment on S. epidermidis (Staphylococcus epidermidis, Table 2, S. epidermidis NRS6, read-out: MIC) it was 0.5 µg/mL; with S. epidermidis (Staphylococcus epidermidis, Table 2, S. epidermidis NRS7, read-out: MIC) it was 0.03 µg/mL; in the experiment with S. epidermidis (Staphylococcus epidermidis, Table 2, S. epidermidis NRS8, read-out: MIC), 0.25 µg/mL. The minimum inhibitory concentration (MIC) with S. hemolyticus (Table 2, S. hemolyticus NRS50, read-out: MIC) was found to be 0.25 µg/mL; in the experiment on S. hemolyticus (Table 2, S. hemolyticus NRS116, read-out: MIC) it was 0.5 µg/mL.
Regarding `Brc1cc(Br)c2c(c1)C(NCCCNc1nc3ncccc3[nH]1)CCN2` (stereo not shown) [MRSi cmpd 2, N-(6,8-Dibromo-1,2,3,4-tetrahydroquinolin-4-yl)-N′-(1H-imidazo[4,5-b]pyridine-2-yl)-propane-1,3-diamine dihydrochloride], the MIC with S. aureus (Staphylococcus aureus, ATCC43300, S. aureus ATCC 43300 (ORSA), read-out: MIC) was 0.25 µg/mL; in the experiment with S. aureus (Staphylococcus aureus, NRS 1 / VISA, S. aureus NRS1 (VISA)), 0.25 µg/mL; with S. aureus (Staphylococcus aureus, NRS107, S. aureus NRS107 (HL Mup rest.), read-out: MIC), 0.06 µg/mL; in the experiment on S. aureus (Staphylococcus aureus, S. aureus 10-420 (LL Mup. Rest.), read-out: MIC), 0.25 µg/mL; with S. aureus (Staphylococcus aureus, S. aureus 14-354 (LL Mup. Rest.), read-out: MIC), 0.25 µg/mL; with S. aureus (Staphylococcus aureus, S. aureus 25-670 (HL Mup. Rest.), read-out: MIC) it was 0.25 µg/mL. In addition, the MIC in the experiment with S. aureus (Staphylococcus aureus, S. aureus 31-1334 (LL Mup Rest.), read-out: MIC) worked out at 0.25 µg/mL; in the experiment on S. aureus (Staphylococcus aureus, S. aureus 36-1298 (LL Mup. Rest.), read-out: MIC) it was 0.06 µg/mL; in the experiment on S. aureus (Staphylococcus aureus, S. aureus 87-2797 (HL Mup. Rest.), read-out: MIC), 0.25 µg/mL; in the experiment on S. aureus (Staphylococcus aureus, S. aureus 87-2797 (Mup. Susc.), read-out: MIC) it was 0.25 µg/mL; in the experiment on S. aureus (Staphylococcus aureus, S. aureus 101-100 (Mup. Susc.), read-out: MIC) it was 0.12 µg/mL; in the experiment on S. aureus (Staphylococcus aureus, S. aureus LZ1 (HL Mup rest.), read-out: MIC) it was 0.12 µg/mL. Further, the minimal inhibitory concentration (MIC) with S. aureus (Staphylococcus aureus, S. aureus LZ6 (HL Mup rest.), read-out: MIC) came to 0.25 µg/mL; in the experiment on S. aureus (Staphylococcus aureus, S. aureus LZ8 (LL Mup. Rest.), read-out: MIC), 0.25 µg/mL; in the experiment on S. aureus (Staphylococcus aureus, S. aureus LZ9, read-out: MIC) it was 0.25 µg/mL; in the experiment with S. aureus (Staphylococcus aureus, S. aureus LZ10, read-out: MIC), 0.25 µg/mL; with S. aureus (Staphylococcus aureus, S. aureus Miles Hall, read-out: MIC), 0.12 µg/mL; in the experiment on S. aureus (Staphylococcus aureus, S. aureus Oxford, read-out: MIC) it was 0.12 µg/mL. Besides, the MIC in the experiment on S. aureus (Table 12, S. aureus 25-670, high level mupirocin-resistant, agent alone) was 0.5 8 g/mL; in the experiment with E. faecalis (Enterococcus faecalis, ATCC 51299 / VRE, Table 8, E. faecalis ATCC 51299 (VRE)) it was 0.03 µg/mL; with E. faecalis (Enterococcus faecalis, Table 8, E. faecalis 1), 0.015 µg/mL; in the experiment with E. faecalis (Enterococcus faecalis, Table 8, E. faecalis 7), 0.06 µg/mL; in the experiment on E. faecium it was not above 0.004 µg/mL. Besides, the MIC90 in the experiment with S. aureus (Staphylococcus aureus, all S. aureus strains of Table 1, read-out: MIC 90) turned out to be 0.25 µg/mL. In the experiment on S. aureus (all S. aureus strains of Table 1 (mupirocin-susceptible and -resistant)), the “MIC Range” value lay in the range of 0.06 to 0.25 µg/mL. The “Mutation Frequency (48 hours)” value in experiment [1] (S. aureus 31-1334 (low level mupirocin-resistant), selecting concentration 2 x MIC) is 3.3 × 10^−7; in experiment [1] (S. aureus 31-1334 (low level mupirocin-resistant), selecting concentration 4 x MIC) it was 6.8 × 10^−8; in experiment [1] (S. aureus 31-1334 (low level mupirocin-resistant), selecting concentration 8 x MIC) it was 1.9 × 10^−8; in experiment [1] (S. aureus ATCC 29213 (mupirocin susceptible), selecting concentration 2 x MIC), 1.01 × 10^−7; in experiment [1] (S. aureus ATCC 29213 (mupirocin susceptible), selecting concentration 4 x MIC) it was 3.14 × 10^−8; in experiment [1] (S. aureus ATCC 29213 (mupirocin susceptible), selecting concentration 8 x MIC), 2.07 × 10^−8.
Turning to `Clc1cc(Cl)c2c(Cl)c(CNCCCNc3nc4ncccc4[nH]3)[nH]c2c1` [MRSi Cmpd 8 acetate, N-(1H-imidazo[4,5-b]pyridin-2-yl)-N′-(3,4,6-trichloro-1H-indol-2-ylmethyl)—propane-1,3-diamine], the minimum inhibitory concentration (MIC) amounted to 0.06 µg/mL in the experiment on S. aureus (Staphylococcus aureus, ATCC29213, Table 3, S. aureus ATCC 29213, read-out: MIC); 0.03 µg/mL in the experiment with S. aureus (Staphylococcus aureus, ATCC43300, Table 3, S. aureus ATCC 43300 (ORSA), read-out: MIC); 0.03 µg/mL in the experiment with S. aureus (Staphylococcus aureus, NRS107, Table 3, S. aureus NRS107 (mupA), read-out: MIC); 0.03 µg/mL in the experiment with S. aureus (Staphylococcus aureus, Table 3, S. aureus Oxford, read-out: MIC); 0.03 µg/mL with E. faecalis (Enterococcus faecalis, ATCC29212, Table 3, E. faecalis ATCC 29212, read-out: MIC); 0.03 µg/mL with E. faecalis (Enterococcus faecalis, Table 3, E. faecalis 1, read-out: MIC). Moreover, the minimal inhibitory concentration (MIC) stood at 0.03 µg/mL with E. faecalis (Enterococcus faecalis, Table 3, E. faecalis 7, read-out: MIC); 0.12 µg/mL in the experiment with S. pyogenes (Streptococcus pyogenes, ATCC19615, Table 3, S. pyogenes ATCC 19615, read-out: MIC); 0.12 µg/mL in the experiment with S. pyogenes (Streptococcus pyogenes, Table 3, S. pyogenes MB143 (macrolide rest.), read-out: MIC); 0.12 µg/mL in the experiment with S. epidermidis (Staphylococcus epidermidis, Table 3, S. epidermidis NRS6, read-out: MIC); 0.06 µg/mL in the experiment with S. epidermidis (Staphylococcus epidermidis, Table 3, S. epidermidis NRS7, read-out: MIC); 0.12 µg/mL with S. epidermidis (Staphylococcus epidermidis, Table 3, S. epidermidis NRS8, read-out: MIC). The MIC came to 0.06 µg/mL in the experiment on S. hemolyticus (Table 3, S. hemolyticus NRS50, read-out: MIC) and 0.12 µg/mL in the experiment with S. hemolyticus (Table 3, S. hemolyticus NRS116, read-out: MIC).
For `CC(=O)O[C@H]1C[C@@]2(C)[C@@H](C[C@@H](O)[C@H]3[C@@]4(C)CC[C@@H](O)[C@@H](C)[C@@H]4CC[C@@]32C)/C1=C(\CCC=C(C)C)C(=O)O.Clc1cc(Cl)c2c(Cl)c(CNCCCNc3nc4ncccc4[nH]3)[nH]c2c1` [MRSi Cmpd 8 fusidate, N-(1H-IMIDAZO[4,5-B] PYRIDIN-2-YL)-N′-(3,4,6-TRICHLORO-1H-INDOL-2-YLMETHYL)-PROPANE-1,3-DIAMINE FUSIDATE], the MIC worked out at 0.12 µg/mL with S. aureus (Table 3, S. aureus ATCC 29213); 0.06 µg/mL in the experiment with S. aureus (Table 3, S. aureus ATCC 43300 (ORSA)); 0.06 µg/mL in the experiment on S. aureus (Table 3, S. aureus NRS107 (mupA)); 0.06 µg/mL in the experiment with S. aureus (Table 3, S. aureus Oxford); 0.06 µg/mL in the experiment with E. faecalis (Table 3, E. faecalis 1); 0.12 µg/mL in the experiment on E. faecalis (Table 3, E. faecalis 7). The MIC amounted to 0.12 µg/mL in the experiment with E. faecalis (Table 3, E. faecalis ATCC 29212); 0.5 µg/mL in the experiment on S. pyogenes (Table 3, S. pyogenes ATCC 19615); 0.5 µg/mL in the experiment on S. pyogenes (Table 3, S. pyogenes MB143 (macrolide rest.)); 0.25 µg/mL in the experiment on S. epidermidis (Table 3, S. epidermidis NRS6); 0.12 µg/mL with S. epidermidis (Table 3, S. epidermidis NRS7); 0.25 µg/mL in the experiment on S. epidermidis (Table 3, S. epidermidis NRS8). The MIC with S. hemolyticus (Table 3, S. hemolyticus NRS50) was 0.12 µg/mL; in the experiment with S. hemolyticus (Table 3, S. hemolyticus NRS116), 0.25 µg/mL.

Broadly, the MIC is the smallest concentration in the dilution series that meets the test's criterion for growth inhibition.
